Publication PMC3736441 (Marine Drugs, 2013)

Experiments:
[1] = test system: cervix carcinoma cells (Hela); experiment: in vitro; conditions: Hela cells, MTT
Method: (§1) IC50 of these compounds were determined by the MTT assay (see Table 2).
(§2) The cytotoxic activities were determined using MCF-7, A549, Hela, KB human tumor cells by the MTT colorimetric method. […] Subsequently 20 μL of MTT solution (5 mg/mL) were added to each well and mixed, the cells were then incubated for an additional 4 h. Culture supernatant were removed, 150 μL of DMSO were added to each well to fully dissolve the MTT—formazan crystals. Cell growth inhibition was determined by measuring the absorbance (Abs) at λ = 570 nm using a microplate reader and calculated according to the following equation: Growth inhibition = (1 − OD of treated cells/OD of control cells) × 100% (1)
(§3) The half maximal inhibitory concentrations (IC50) were obtained from linear regression analysis of the concentration-response curves plotted for each tested compound (Bliss’s software). Results were expressed as the mean value of triplicate data points.

[2] = test system: human breast cancer cells (MCF-7); experiment: in vitro; conditions: MCF-7 cells, MTT
Method: as §1, §2, §3

[3] = test system: human nasopharyngeal carcinoma cells (KB); conditions: MTT
Method: as §1, §2, §3

[4] = test system: lung cancer cells (A549); conditions: MTT
Method: as §1, §2, §3

[5] = molecular target: α-acetylcholinesterase (AChE) (Homo sapiens, UniProt P22303); experiment: biochemical; format: biochemical; conditions: phosphate buffer pH 7.0, 37 °C, triplicate; for IC50: read-out: Inhibition of AChE IC50; on all read-outs here: key: '-' as 'no action'
Method: α-Acetylcholinesterase inhibitory activity was assayed using 50 mM phosphate buffer (pH 7.0). […] 10 μL of sample solution and 10 μL of α-acetylcholinesterase solution (2 units mL^−1, in the phosphate buffer at pH 7.0) were added to 960 μL of phosphate buffer and incubated at 37 °C for 30 min, and then 20 μL of substrate were added to initiate the enzyme reaction. The enzyme reaction was carried out at 37 °C for 30 min. Product was monitored spectrophotometrically by measuring the absorbance (λ = 400 nm). Huperzine A was used as reference standard inhibitor for comparison. Dose-response curves were obtained by performing assays in the presence of increasing concentrations of inhibitors. IC50 value was determined by interpolation of the dose-response curves. For all tests, the inhibition assays were performed in triplicate.

[6] = in vitro; conditions: human
Method: as §1, §2, §3

α-acetylcholinesterase (AChE), sequence (P22303 32-614): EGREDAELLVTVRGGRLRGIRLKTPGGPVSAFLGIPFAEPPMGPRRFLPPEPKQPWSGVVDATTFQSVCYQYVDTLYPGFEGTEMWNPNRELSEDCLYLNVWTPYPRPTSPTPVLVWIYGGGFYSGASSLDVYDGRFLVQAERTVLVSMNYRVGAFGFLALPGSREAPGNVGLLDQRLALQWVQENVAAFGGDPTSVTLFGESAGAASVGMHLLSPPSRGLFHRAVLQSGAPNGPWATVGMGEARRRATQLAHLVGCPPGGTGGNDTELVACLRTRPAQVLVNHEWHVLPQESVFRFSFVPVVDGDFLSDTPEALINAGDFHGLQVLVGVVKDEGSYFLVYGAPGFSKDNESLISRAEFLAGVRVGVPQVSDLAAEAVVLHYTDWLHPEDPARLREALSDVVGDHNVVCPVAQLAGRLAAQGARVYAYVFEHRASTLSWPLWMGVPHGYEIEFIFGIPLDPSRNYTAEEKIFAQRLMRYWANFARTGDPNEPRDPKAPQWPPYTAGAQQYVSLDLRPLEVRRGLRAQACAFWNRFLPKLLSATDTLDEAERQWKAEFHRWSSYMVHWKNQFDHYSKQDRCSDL

| Structure (SMILES) | Cytotoxicity IC50 Hela [1] | cytotoxic / inhibitory activity against Hela (in words) [1] | Cytotoxicity IC50 MCF-7 [2] | cytotoxic / inhibitory activity against MCF-7 (in words) [2] | Cytotoxicity IC50 KB [3] | cytotoxic / inhibitory activity against KB (in words) [3] | Cytotoxicity IC50 A549 [4] | cytotoxic / inhibitory activity against A549 (in words) [4] | Inhibition of AChE IC50 [5] | IC50 [5] | IC50 ([6]; Cytotoxicity IC50 Hela, Hela cells, MTT) | IC50 ([6]; Cytotoxicity IC50 MCF-7, MCF-7 cells, MTT) | IC50 ([6]; Cytotoxicity IC50 Hela) | IC50 ([6]; Cytotoxicity IC50 MCF-7) |
| --- | --- | --- | --- | --- | --- | --- | --- | --- | --- | --- | --- | --- | --- | --- |
| COc1cc(OC)c2c(c1O)C(=O)c1sc(C(C)O)cc1C2=O (centres unmarked) [Compound 1, 8-hydroxy-2-[1-hydroxyethyl]-5,7-dimethoxynaphtho[2,3-b] thiophene-4,9-dione] | - | no inhibitory activities | - | no inhibitory activities | - | no inhibitory activities | - | no inhibitory activities | - |  |  |  |  |  |
| COC1=CC(=O)c2c(O)c(C)c3c(c2C1=O)O[C@@H](C)C3 [Compound 2, anhydrojavanicin] | - | no inhibitory activities | - | no inhibitory activities | - | no inhibitory activities | - | no inhibitory activities |  | 2010 nM |  |  |  |  |
| COc1cc(OC)c2c(c1O)C(=O)c1cc(C)ncc1C2=O [Compound 3, 8-O-methylbostrycoidin] | - | no inhibitory activities | - | no inhibitory activities | - | no inhibitory activities | - | no inhibitory activities |  | 6710 nM |  |  |  |  |
| COc1cc(OC)c2c(c1O)C(=O)C(CC(C)=O)=C(C)C2=O [Compound 4, 8-O-methyljavanicin] | - | no inhibitory activities | - | no inhibitory activities | - | no inhibitory activities | - | no inhibitory activities | - |  |  |  |  |  |
| CCc1c(OC)cc2c(c1O)C(=O)C[C@H](O)[C@H]2O [Compound 5, botryosphaerone D] | - | no inhibitory activities | - | no inhibitory activities | - | no inhibitory activities | - | no inhibitory activities | - |  |  |  |  |  |
| CCc1c(OC)cc2c(c1O)C(=O)C(OC)=CC2=O [Compound 6, 6-ethyl-5-hydroxy-3,7-dimethoxynaphthoquinone] | - | no inhibitory activities | - | no inhibitory activities | - | no inhibitory activities | - | no inhibitory activities | - |  |  |  |  |  |
| CC(C)[C@@H](C)/C=C/[C@@H](C)[C@H]1CC[C@H]2C3=CC(=O)[C@@]4(O)C[C@@H](O)CC[C@]4(C)[C@H]3CC[C@]12C [Compound 7, 3β,5α-dihydroxy-(22E,24R)-ergosta-7,22-dien-6-one] |  | strong or moderate cytotoxic activies |  | strong or moderate cytotoxic activies |  | strong or moderate cytotoxic activies |  | strong or moderate cytotoxic activies | - |  |  |  |  |  |
| CC(C)[C@@H](C)/C=C/[C@@H](C)[C@H]1CC[C@@]2(O)C3=CC(=O)[C@@]4(O)C[C@@H](O)CC[C@]4(C)[C@H]3CC[C@]12C [Compound 8, 3β,5α,14α-trihydroxy-(22E,24R)-ergosta-7,22-dien-6-one] |  | weak inhibitory activities |  | weak inhibitory activities |  | weak inhibitory activities |  | weak inhibitory activities | - |  | 25400 nM | 24400 nM |  |  |
| CC(=O)O[C@H]1C[C@H]2[C@H]3[C@H]([C@@H](O)C[C@]2(C)[C@H]1[C@H](C)/C=C/[C@H](C)C(C)C)[C@@]1(C)CC[C@H](O)C[C@@H]1C(=O)[C@@H]3O [Compound 9, NGA0187] | - | no inhibitory activities | - | no inhibitory activities | - | no inhibitory activities | - | no inhibitory activities |  | 1890 nM |  |  |  |  |
| COc1cccc2c1C(=O)c1c(O)c3c(c(O)c1C2=O)C[C@@](O)(C(=O)CO)C[C@@H]3O[C@H]1C[C@H](N)[C@@H](O)[C@H](C)O1 [Epirubicin, reference compound] |  |  |  |  |  |  |  |  |  |  |  |  | 1070 nM | 420 nM |
